From patent US11713338B2, “Cyclic peptides multimers targeting α-4-β-7 integrin” (priority 2016, dated 2023)

Key:
[1] = target: T1, recombinant integrin α4β1 (Homo sapiens, UniProt P05556+P13612); test: Integrin α4β1—VCAM-1 competition ELISA; format: binding; settings: read-out: ELISA a4b1 Assay IC50
T1 construct: purchased R&D Systems 5397-A3-050
Experimental: Integrin α4β1—VCAM-1 Competition ELISA
The plate was incubated at 4° C. overnight. […] The plate was then incubated for 1 hour at room temperature. The plate was washed three times with wash buffer (50 mM Tris, 100 mM NaCl, 1 mM MnCl2, 0.05% Tween). To each well, 50 μl of compound diluted in assay buffer was added by transfer from a compound serial dilution plate. […] The plate was incubated at room temperature with shaking (300 rpm) for 2 hours to reach binding equilibrium. Then the plate was washed three times in wash buffer and 100 μl anti-human IgG Fc specific-HRP (Abcam, Ab97225) diluted at 1:2000 in assay buffer was added to each well. The plate was incubated at room temperature for 1 hour under agitation.

[2] = target: T2, recombinant integrin α4β7 (Homo sapiens, UniProt P13612+P26010, DEL724-798); test: Integrin α4β7—MAdCAM-1 ELISA competition assay; format: binding; settings: for ELISA Assay Ratio b1/b7: ratio of a4b1 to a4b7 ELISA IC50; for IC50: read-out: ELISA a4b7 Assay IC50
T2 construct: purchased R&D Systems 5397-A3-050
T2 sequence (P13612 34-970 limits assumed): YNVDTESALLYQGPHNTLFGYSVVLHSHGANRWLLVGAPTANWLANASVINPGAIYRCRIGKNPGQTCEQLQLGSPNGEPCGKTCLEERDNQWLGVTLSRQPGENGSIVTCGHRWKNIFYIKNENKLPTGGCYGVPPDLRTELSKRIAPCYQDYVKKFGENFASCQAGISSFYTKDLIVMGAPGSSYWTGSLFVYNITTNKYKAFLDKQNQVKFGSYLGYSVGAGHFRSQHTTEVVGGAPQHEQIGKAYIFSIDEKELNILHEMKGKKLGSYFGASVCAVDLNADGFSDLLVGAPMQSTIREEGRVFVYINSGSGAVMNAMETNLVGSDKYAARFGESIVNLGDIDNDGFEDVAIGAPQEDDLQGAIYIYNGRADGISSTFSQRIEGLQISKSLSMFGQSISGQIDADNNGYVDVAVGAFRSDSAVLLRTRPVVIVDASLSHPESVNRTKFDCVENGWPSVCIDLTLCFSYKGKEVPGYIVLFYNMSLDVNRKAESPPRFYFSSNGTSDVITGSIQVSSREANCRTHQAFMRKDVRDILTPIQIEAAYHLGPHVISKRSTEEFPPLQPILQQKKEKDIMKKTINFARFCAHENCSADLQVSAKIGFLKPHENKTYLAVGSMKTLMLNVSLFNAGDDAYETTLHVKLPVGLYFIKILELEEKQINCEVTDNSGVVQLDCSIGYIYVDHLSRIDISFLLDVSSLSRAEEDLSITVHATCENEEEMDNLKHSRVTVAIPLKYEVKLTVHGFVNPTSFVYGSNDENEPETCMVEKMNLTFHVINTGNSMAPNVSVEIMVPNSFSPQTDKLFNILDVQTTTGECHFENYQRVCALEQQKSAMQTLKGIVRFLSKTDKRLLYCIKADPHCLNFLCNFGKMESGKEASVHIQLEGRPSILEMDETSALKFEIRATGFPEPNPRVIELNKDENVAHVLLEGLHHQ
T2 sequence (P26010 20-723 limits assumed): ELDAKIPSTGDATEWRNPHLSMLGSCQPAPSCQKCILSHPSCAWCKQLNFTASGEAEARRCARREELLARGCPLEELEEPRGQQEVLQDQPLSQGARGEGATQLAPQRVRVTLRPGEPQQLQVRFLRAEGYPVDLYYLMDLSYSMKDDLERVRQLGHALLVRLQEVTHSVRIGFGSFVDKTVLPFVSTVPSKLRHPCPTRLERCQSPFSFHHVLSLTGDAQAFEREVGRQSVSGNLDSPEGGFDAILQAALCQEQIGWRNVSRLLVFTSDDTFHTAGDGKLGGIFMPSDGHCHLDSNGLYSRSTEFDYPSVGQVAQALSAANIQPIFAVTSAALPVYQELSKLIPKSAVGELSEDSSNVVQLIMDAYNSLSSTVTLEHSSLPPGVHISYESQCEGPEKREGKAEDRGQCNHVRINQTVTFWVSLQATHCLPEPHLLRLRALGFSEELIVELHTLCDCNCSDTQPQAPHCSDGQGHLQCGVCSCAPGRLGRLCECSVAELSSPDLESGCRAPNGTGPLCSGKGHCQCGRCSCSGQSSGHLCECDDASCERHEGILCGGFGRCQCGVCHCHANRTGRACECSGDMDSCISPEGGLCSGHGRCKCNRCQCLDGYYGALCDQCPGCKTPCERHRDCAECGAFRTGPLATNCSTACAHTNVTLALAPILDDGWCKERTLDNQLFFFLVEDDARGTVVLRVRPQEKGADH

T1 sequence (P05556 21-728 limits assumed, one chain of several): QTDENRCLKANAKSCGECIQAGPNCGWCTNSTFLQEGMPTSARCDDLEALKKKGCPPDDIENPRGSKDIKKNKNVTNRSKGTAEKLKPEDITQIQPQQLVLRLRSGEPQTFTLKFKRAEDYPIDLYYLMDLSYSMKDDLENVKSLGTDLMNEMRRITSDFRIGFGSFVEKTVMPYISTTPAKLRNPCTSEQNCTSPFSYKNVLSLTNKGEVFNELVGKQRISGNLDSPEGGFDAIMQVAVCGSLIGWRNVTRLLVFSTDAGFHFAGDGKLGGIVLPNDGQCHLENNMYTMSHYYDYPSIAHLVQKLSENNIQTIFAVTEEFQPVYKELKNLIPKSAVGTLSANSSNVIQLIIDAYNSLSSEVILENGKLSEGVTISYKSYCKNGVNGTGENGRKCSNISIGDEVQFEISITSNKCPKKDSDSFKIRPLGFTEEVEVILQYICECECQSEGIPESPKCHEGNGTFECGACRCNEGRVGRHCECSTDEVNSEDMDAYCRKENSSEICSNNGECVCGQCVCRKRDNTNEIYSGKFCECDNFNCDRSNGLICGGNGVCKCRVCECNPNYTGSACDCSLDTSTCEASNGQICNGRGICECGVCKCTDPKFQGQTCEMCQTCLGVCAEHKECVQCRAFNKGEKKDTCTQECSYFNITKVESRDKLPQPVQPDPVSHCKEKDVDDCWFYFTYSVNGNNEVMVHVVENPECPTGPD

CC(C)C[C@@H]1NC(=O)[C@H]2C[C@@H](O)CN2C(=O)[C@H](Cc2ccc(O)cc2)NC(=O)[C@@H]2CCCN2[C@H](C(=O)NC(C)(C)C)[C@H](C)NC(=O)[C@H]([C@@H](C)O)NC(=O)[C@H](CC(=O)O)NC1=O [Compound 141]
IC50 [1]: 36 nM
ELISA Assay Ratio b1/b7 [2]: 2.0
IC50 [2]: 19 nM

CC[C@H](C)[C@@H]1NC(=O)[C@H](CC(=O)O)NC(=O)[C@H](CC(C)C)NC(=O)C[C@H](CCCCN)NC(=O)[C@@H](Cc2ccc(CN)cc2)NC(=O)[C@@H]2CCCN2[C@H](C(=O)NC(C)(C)C)[C@H](C)NC1=O [Compound 253]
IC50 [1]: 1090 nM
ELISA Assay Ratio b1/b7 [2]: 15.6
IC50 [2]: 69 nM

CC(C)C[C@@H]1NC(=O)CN(C)C(=O)[C@H](Cc2csc(-c3ccccn3)n2)NC(=O)[C@@H]2CCCN2[C@H](C(=O)NC(C)(C)C)[C@H](C)NC(=O)[C@H]([C@@H](C)O)NC(=O)[C@H](CC(=O)O)NC1=O [Compound 179]
IC50 [1]: 2660 nM
ELISA Assay Ratio b1/b7 [2]: 15.2

CC(C)C[C@@H]1NC(=O)C[C@H](CCCCN)NC(=O)C2(Cc3ccccc3C2)NC(=O)[C@@H]2CCCN2[C@H](C(=O)NC(C)(C)C)[C@H](C)NC(=O)[C@H]([C@@H](C)O)NC(=O)[C@H](CC(=O)O)NC1=O [Compound 288]
IC50 [1]: 1660 nM
ELISA Assay Ratio b1/b7 [2]: 12.2
IC50 [2]: 136 nM

CC(C)C[C@@H]1NC(=O)[C@@H]2C[C@@H](O)CN2C(=O)[C@H](Cc2ccc(O)cc2)NC(=O)[C@@H]2CCCN2[C@H](C(=O)NC(C)(C)C)[C@H](C)NC(=O)[C@H]([C@@H](C)O)NC(=O)[C@H](CC(=O)O)NC1=O [Compound 139]
IC50 [1]: 73 nM
ELISA Assay Ratio b1/b7 [2]: 0.7
IC50 [2]: 100 nM

CC(C)C[C@@H]1NC(=O)C2(CCCC2)NC(=O)[C@@H]2CCCN2[C@H](C(=O)NC(C)(C)C)[C@H](C)NC(=O)[C@H]([C@@H](C)O)NC(=O)[C@H](CC(=O)O)NC1=O [Compound 88]
IC50 [1]: 166 nM
ELISA Assay Ratio b1/b7 [2]: 14.9
IC50 [2]: 11 nM

CC(C)C[C@@H]1NC(=O)[C@H]2CCCCN2C(=O)[C@H](Cc2ccccc2I)NC(=O)[C@@H]2CCCN2[C@H](C(=O)NC(C)(C)C)[C@H](C)NC(=O)[C@H]([C@@H](C)O)NC(=O)[C@H](CC(=O)O)NC1=O [Compound 133]
IC50 [1]: 80 nM
ELISA Assay Ratio b1/b7 [2]: 5.3
IC50 [2]: 15 nM

CC(C)C[C@@H]1NC(=O)[C@H](Cc2csc(-c3ccccn3)n2)NC(=O)[C@@H]2CCCN2[C@H](C(=O)NC(C)(C)C)[C@H](C)NC(=O)[C@H]([C@@H](C)O)NC(=O)[C@H](CC(=O)O)NC1=O [Compound 95]
IC50 [1]: 303 nM
ELISA Assay Ratio b1/b7 [2]: 2.4
IC50 [2]: 125 nM

CC[C@H](C)[C@@H]1NC(=O)[C@H](CC(=O)O)NC(=O)[C@H](CC(C)C)NC(=O)[C@@H](CCCCN)N(C)C(=O)[C@H](Cc2ccc(O)cc2)NC(=O)[C@@H]2CCCN2[C@H](C(=O)NC(C)(C)C)[C@H](C)NC1=O [Compound 154]
IC50 [1]: 2660 nM
ELISA Assay Ratio b1/b7 [2]: 22.8
IC50 [2]: 117 nM

COc1ccc(C[C@@H]2NC(=O)[C@@H]3CCCN3[C@H](C(=O)NC(C)(C)C)[C@H](C)NC(=O)[C@H]([C@@H](C)O)NC(=O)[C@H](CC(=O)O)NC(=O)[C@H](CC(C)C)NC(=O)[C@H]3CCCN3C2=O)cc1OC [Compound 127]
IC50 [1]: 196 nM
ELISA Assay Ratio b1/b7 [2]: 7.8
IC50 [2]: 25 nM

COc1cccc(Cl)c1-c1ccc(C[C@@H]2NC(=O)[C@@H]3CCCN3[C@H](C(=O)NC(C)(C)C)[C@H](C)NC(=O)[C@H]([C@@H](C)O)NC(=O)[C@H](CC(=O)O)NC(=O)[C@H](CC(C)C)NC(=O)C[C@H](CCCCN)NC2=O)cc1 [Compound 269]
IC50 [1]: 1760 nM
ELISA Assay Ratio b1/b7 [2]: 31.6
IC50 [2]: 56 nM

CC(C)C[C@@H]1NC(=O)[C@H]2CCCCN2C(=O)[C@H](Cc2cccc3ccccc23)NC(=O)[C@@H]2CCCN2[C@H](C(=O)NC(C)(C)C)[C@H](C)NC(=O)[C@H]([C@@H](C)O)NC(=O)[C@H](CC(=O)O)NC1=O [Compound 143]
IC50 [1]: 68 nM
ELISA Assay Ratio b1/b7 [2]: 2.1
IC50 [2]: 33 nM
